Data: patent publication US11491165B2 (Kinoxis Therapeutics Pty Ltd, priority 2016, dated 2022)

Assays:
[1] = biological target: T1, oxytocin receptor (OXTR), hOTR (Homo sapiens, UniProt P30559); assay: IP1 accumulation assay, OTR-expressing HEK-293 cells (agonist and antagonist assessment); type: cell-based; conditions: for EC50 / EC50 (OXTR agonist potency, mean ± s.d.): agonist assessment; for EC50: IP1, 1 h; for IC50: antagonist assessment vs OT 30 nM (~EC70); for IC50 / EC50 (OXTR agonist potency, mean ± s.d.): IP1; for OV function: ratio of OXTR functional potency to V1aR functional potency, 'OT only' = function at OXTR only; for Emax: HEK293, read-out: OXTR Emax (% OXT)
T1 construct: expressed in transfected cells
T1 sequence (P30559 1-389): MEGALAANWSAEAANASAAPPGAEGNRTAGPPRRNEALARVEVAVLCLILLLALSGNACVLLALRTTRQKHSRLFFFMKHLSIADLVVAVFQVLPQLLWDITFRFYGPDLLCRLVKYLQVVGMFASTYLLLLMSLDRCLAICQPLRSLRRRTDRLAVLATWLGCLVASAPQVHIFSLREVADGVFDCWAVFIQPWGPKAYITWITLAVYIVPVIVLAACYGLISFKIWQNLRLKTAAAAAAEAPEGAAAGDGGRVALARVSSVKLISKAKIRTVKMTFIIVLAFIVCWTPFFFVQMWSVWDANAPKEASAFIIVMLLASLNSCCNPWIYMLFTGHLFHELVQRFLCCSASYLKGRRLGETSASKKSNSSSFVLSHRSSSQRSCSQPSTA
Procedure: (§1) Human embryonic kidney cells (HEK-293) transfected to stably express untagged hOTR and V1aR using the Flp-In™ T-REx™ system (Life Technologies, Carlsbad, Calif. USA) were established as reported in Jorgensen et al., 2016 (the entire disclosure of which is hereby incorporated by reference). Cells were subsequently maintained in 10% DMEM containing hygromycin (80 μg/ml), penicillin (100 U/ml), streptomycin (0.1 mg/ml) and blasticidine S hydrochloride (15 μg/ml).
(§2) OTR or V1aR-expressing HEK-293 cells were seeded onto poly-L-lysine (100 μg/ml)-coated 384-well plates at a density of 8.75×10^3 cells per well. Cells were incubated in tetracycline (2 μg/mL) for 48 h to induce receptor expression. Intracellular IP1 levels induced by activation of the Gq protein coupled to the OTR and V1aR was indexed using the HTRF IP-One kit (CisBio International, Bedford, Mass., USA), according to manufacturer's protocol. For agonist assessment, cells were incubated with logarithmically-spaced concentrations of compounds (1 nM-100 μM) for 1 h prior to the addition of Ab-Cryptate and IP1-d2 for 1 h. The contents of each well were transferred to a white-walled proxy plate (Perkin Elmer) and fluorescence read using a Pherastar Microplate reader (BMG Labtech, Cary, N.C., USA). For antagonist assessment, cells were incubated an ˜EC70 concentration of OT (30 nM) or AVP (25 nM) mixed with compounds (1 nM-100 μM) or vehicle control for 1 h. IP1 levels in the presence of compounds and OT or AVP were expressed as a percentage of levels seen with OT or AVP in the presence of vehicle control. Concentration response curves for OT and AVP were determined after 5 min incubation in drug or vehicle, and the data fitted using GraphPad PRISM to a 4-parameter logistic equation of the form y=Min+(Max−Min)/(1+10^((logEC50−X)*n)) where X is drug concentration and n is the H-ill slope. Data represent the mean±s.d. of at least 3 independent experiments, each in duplicate.

[2] = biological target: T2, vasopressin 1a receptor (V1aR) (Homo sapiens, UniProt P37288); assay: Competition radioligand binding, [3H]-vasopressin, V1aR-expressing HEK293 membranes; conditions: [3H]-vasopressin 2 nM, 90 min 4 °C
T2 construct: expressed in transfected cells
T2 sequence (P37288 whole entry): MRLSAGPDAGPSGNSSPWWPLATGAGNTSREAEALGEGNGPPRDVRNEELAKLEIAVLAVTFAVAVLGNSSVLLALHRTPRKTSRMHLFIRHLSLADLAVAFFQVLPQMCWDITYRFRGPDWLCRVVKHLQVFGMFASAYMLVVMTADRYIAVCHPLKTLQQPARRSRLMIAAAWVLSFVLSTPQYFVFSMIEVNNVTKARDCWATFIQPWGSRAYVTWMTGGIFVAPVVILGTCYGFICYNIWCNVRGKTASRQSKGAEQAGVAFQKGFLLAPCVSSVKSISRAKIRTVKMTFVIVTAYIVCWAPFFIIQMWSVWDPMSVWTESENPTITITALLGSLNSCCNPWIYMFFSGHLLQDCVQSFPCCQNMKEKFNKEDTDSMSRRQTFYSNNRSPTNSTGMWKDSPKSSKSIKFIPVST
Procedure: as §1
(§3) To induce receptor expression, cells were incubated with tetracycline (2 μg/mL) for 48 h. PBS with 5 mM EDTA (pH 7.4) was used to detach OTR and V1aR-expressing HEK293 cells from culture flasks. Harvested cells were centrifuged at 1200 g for 5 min and were resuspended in homogenization buffer (50 mM HEPES, 5 mM EDTA, 5 mM MgCl2; pH 7.4) prior to homogenization using an Ultra-Turrax homogeniser (IKA, Wilmington, N.C., USA). Homogenates were centrifuged three times for 30 min at 48.000 g, 4° C. for 30 min and membrane pellets resuspended in 50 mM Tris HCl, 5 mM MgCl2 (pH 7.4). A bicinchoninic acid assay was used according to the manufacturer's protocol (Bio-Rad, Hercules. Calif., USA) to measure final protein concentration. Membranes were stored at −80° C. until use in competition radioligand binding studies.
(§4) Reactions were incubated for 90 min at 4° C. to reach equilibrium, and terminated by rapid filtration over glass fibre filters (Whatman GF/A […]; Millipore, Darmstadt, Germany), and washing with ice-cold reaction buffer. Filters were dried, then incubated with Microscint 0 (Perkin Elmer) for 30 min before radioactivity was detected with a Microbeta2 2450 microplate-reader (Perkin Elmer). […] Specific binding in the presence of compounds was expressed as a percentage of specific binding in the presence of vehicle control. A sum-of-squares F-test was used to compare the goodness of fit of one-site, two-site and sigmoidal with variable hill slope binding models, and to calculate Ki's using Graphpad Prism (Graphpad Software, La Jolla, Calif., USA).

[3] = biological target: T2, vasopressin 1a receptor (V1aR); assay: IP1 accumulation assay, V1aR-expressing HEK-293 cells (agonist and antagonist assessment); type: cell-based; conditions: for EC50: agonist assessment, IP1, 1 h; for IC50: antagonist assessment vs AVP 25 nM (~EC70), IP1
Procedure: Cells were subsequently maintained in 10% DMEM containing hygromycin (80 μg/ml), penicillin (100 U/ml), streptomycin (0.1 mg/ml) and blasticidine S hydrochloride (15 μg/ml).
as §2, with “Cells” for “OTR or V1aR-expressing HEK-293 cells were seeded onto poly-L-lysine (100 μg/ml)-coated 384-well plates at a density of 8.75×10^3 cells per well. Cells”, “For antagonist assessment, cells were incubated an ˜EC70 concentration of OT (30 nM) or AVP (25 nM) mixed with compounds (1 nM-100 μM) or vehicle control for 1 h.” left out

[4] = biological target: T1, oxytocin receptor (OXTR), hOTR; assay: Competition radioligand binding, [3H]-oxytocin, OTR-expressing HEK293 membranes; conditions: [3H]-oxytocin 10 nM, 90 min 4 °C
Procedure: as §1, §3, §4

SMILES	EC50 [1] [nM]	IC50 [1] [nM]	OV function [1]	Ki [2] [nM]	EC50 [3] [nM]	IC50 [3] [nM]	melting point	Ki [4] [nM]	Emax [1] [%]	EC50 (OXTR agonist potency, mean ± s.d.) [1] [nM]
COc1cc(OC)cc(C(=O)N2Cc3cnn(C)c3Nc3ccccc32)c1 [WJ0629, (3,5-Dimethoxyphenyl)(1-methyl-4,10-dihydrobenzo[b]pyrazolo[3,4-e][1,4]diazepin-5 (1H)-yl)methanone]	> 10000	1770	18.63	12.9 ± 1.5	> 10000	94.8 ± 7.7	279 to 281 °C (dec.)	316 ± 79.2		
Cn1ncc2c1Nc1ccccc1N(C(=O)c1ccccc1)C2 [WJ0685, (1-Methyl-4,10-dihydrobenzo[b]pyrazolo[3,4-e][1,4]diazepin-5 (1H)-yl)(phenyl)methanone]	847 ± 244			81.6 ± 12.6	> 10000	> 10000	> 300 °C	> 10000	11.9	297.7 ± 71.3
Cn1ncc2c1Nc1ccccc1N(C(=O)C1CCCCC1)C2 [CA6 (KA), cyclohexyl(1-methyl-4,10-dihydrobenzo[b]pyrazolo[3,4-e][1,4]diazepin-5 (1H)-yl)methanone]	481 ± 61		<0.04	236 ± 75	> 10000	> 10000		1080 ± 323	17	
Cn1ncc2c1Nc1ccccc1N(C(=O)C13CC4CC(CC(C4)C1)C3)C2 [WJ0687, ((3r,5r,7r)-Adamantan-1-yl)(1-methyl-4,10-dihydrobenzo[b]pyrazolo[3,4-e][1,4]diazepin-5 (1H)-yl)methanone]	4880 ± 141			377 ± 106	> 10000	> 10000	283 to 285 °C	> 10000	33.3	834 ± 61.1
Cn1ncc2c1Nc1ccccc1N(C(=O)C13CC4CC(F)(CC(F)(C4)C1)C3)C2 [WJ0807dF, ((1r,3R,5S,7r)-3,5-Difluoroadamantan-1-yl)(1-methyl-4,10-dihydrobenzo[b]pyrazolo[3,4-e][1,4]diazepin-5 (1H)-yl)methanone]	4150 ± 1340			2210	> 10000	> 10000	262 to 264 °C (dec.)	> 10000	26.7	667.7
Cn1ncc2c1Nc1ccccc1N(C(=O)c1ccc3c(c1)OCO3)C2 [TRGA95, benzo[d][1,3]dioxol-5-yl(1-methyl-4,10-dihydrobenzo[b]pyrazolo[3,4-e][1,4]diazepin-5 (1H)-yl)methanone]	91 ± 25		0.06	18 ± 1	> 10000	1530 ± 444		159 ± 32	13	
Cn1ncc2c1Nc1ccccc1N(C(=O)c1ccc(C(F)(F)F)cc1)C2 [WJ0677, (1-Methyl-4,10-dihydrobenzo[b]pyrazolo[3,4-e][1,4]diazepin-5 (1H)-yl)(4-(trifluoromethyl)phenyl)methanone]	179 ± 37.8			96.9 ± 33.5	> 10000	> 10000	204 to 206 °C	560 ± 111	7.72	193.3 ± 11.3
Cn1ncc2c1Nc1ccccc1N(C(=O)c1ccc(Cl)c(Cl)c1)C2 [WJ0824, (3,4-Dichlorophenyl)(1-methyl-4,10-dihydrobenzo[b]pyrazolo[3,4-e][1,4]diazepin-5 (1H)-yl)methanone]	438 ± 127			455 ± 112	> 10000	> 10000		1620 ± 243	12.9	321.8
Cn1ncc2c1Nc1ccccc1N(C(=O)c1ccc(Cl)cc1)C2 [WJ0755, (4-Chlorophenyl)(1-methyl-4,10-dihydrobenzo[b]pyrazolo[3,4-e][1,4]diazepin-5 (1H)-yl)methanone]	152 ± 47.3		0.09	174 ± 57.4	> 10000	1670 ± 299	243 to 246 °C	519 ± 110	10.2	255 ± 59.7
CCc1ccc(C(=O)N2Cc3cnn(C)c3Nc3ccccc32)cc1 [TRGA99, (4-ethylphenyl)(1-methyl-4,10-dihydrobenzo[b]pyrazolo[3,4-e][1,4]diazepin-5 (1H)-yl)methanone]	41 ± 15		0.02	1.8 ± 0.6	> 10000	1650 ± 75		22 ± 8	8	
Cc1cccc(C(=O)N2Cc3cnn(C)c3Nc3ccccc32)c1 [WJ0823, (1-Methyl-4,10-dihydrobenzo[b]pyrazolo[3,4-e][1,4]diazepin-5 (1H)-yl)(m-tolyl)methanone]	407 ± 102				> 10000	> 10000	254 to 256 °C	553 ± 155	16.8	420 ± 37
Cn1ncc2c1Nc1ccccc1N(C(=O)C1C(C)(C)C1(C)C)C2 [TRGA111, (1-methyl-4,10-dihydrobenzo[b]pyrazolo[3,4-e][1,4]diazepin-5 (1H)-yl)(2,2,3,3-tetramethylcyclopropyl)methanone]	> 10000	> 10000		> 10000	> 10000	> 10000		> 10000		
Cc1cc(C(=O)N2Cc3cnn(C)c3Nc3ccccc32)ccc1CN [WJ0761]	9190 ± 1620		<0.92	44.7 ± 5	> 10000	> 10000		> 10000	8	
